Measured values as given in PMC2364024, “Bioavailability and dose-dependent anti-tumour effects of 9-cis retinoic acid on human neuroblastoma xenografts in rat” (British Journal of Cancer, 2001).
Where “and” joins values, the source holds several entries; their conditions need not be identical. Equal values may be shown once. Entries after “also recorded” stand apart in the source; their conditions may differ. Read-outs that look alike come from different tables or passages of the source.

Experiments:
[1] = rat, in vivo; for AUC (area under the curve) / Cmax (concentration maximum) / T1/2 (elimination half-life) / ratio AUC (4-oxo-9-cis RA)/AUC (9 cis RA): 9 mg; for conversion of 9-cis RA to its metabolite (4-oxo-9-cis RA) / ratio AUC (4-oxo-9-cis RA)/AUC (9 cis RA): male, Sprague-Dawley
[2] = test system: human neuroblastoma SH-SY5Y xenografts; assay: Neuroblastoma SH-SY5Y xenograft tumour growth in nude rats; format: in vivo
Description: This increases the importance of finding new therapeutic drugs. […] Two animals were sacrificed at each time point. […] The true tumour weight was recorded at autopsy. […] All treatments were administered with a gastric feeding tube.

[3] = test system: human neuroblastoma SH-SY5Y xenografts; design: method as in Ponthan et al, 2001; conditions: nude rats, 9-cis RA 5 mg day-1 (once daily); ref Ponthan et al, 2001; cited from earlier work
[4] = Pharmacokinetic study of 9-cis RA in rat (plasma HPLC, one-compartment model)

CC1=C(/C=C/C(C)=C\C=C\C(C)=C\C(=O)O)C(C)(C)CCC1=O [4-oxo-9-cis RA, 4-oxo-9-cis retinoic acid]
formed amount (AUC) of 4-oxo-9-cis RA after i.v. versus p.o. administration [1]: 2 fold
Tmax (time of Cmax) ([1]; iv): 188 min
AUC (area under the curve) ([1]; iv): 6295 ng/mL/h
Cmax (concentration maximum) ([1]; iv): 738 ng/mL
T1/2 (elimination half-life) ([1]; iv): 129 min
Tmax (time of Cmax) ([1]; po): 275 min
AUC (area under the curve) ([1]; po): 3563 ng/mL/h
Cmax (concentration maximum) ([1]; po): 441 ng/mL
T1/2 (elimination half-life) ([1]; po): 126 min

CC1=C(/C=C/C(C)=C\C=C\C(C)=C\C(=O)O)C(C)(C)CCC1 [9-cis RA, 9-cis retinoic acid]
tumour weight, trend ([2]; 2 x 2.5 mg day-1 treated group): tendency towards a reduction in tumour weights
tumour weight at sacrifice, median (and range) ([2]; 9-cis RA 2 mg day-1 (RA 1), n 10 tumours, 12 days): 2.79 g and 1.49 to 9.98 g
effect on tumour growth ([2]; 9-cis RA 2 mg day-1 p.o.): no significant effect on tumour growth; also recorded: tumour growth-inhibiting effect was not significant
tumour volume compared to control tumours ([2]; 9-cis RA 2 mg day-1 p.o., 12 days): no significant reduction in tumour volume
effect on tumour growth ([2]; 9-cis RA 2.5 mg p.o. twice daily): only limited effect on tumour growth; also recorded: limited but statisti- cally significant reduction in tumour growth
tumour volume compared to corresponding controls ([2]; 9-cis RA 2.5 mg p.o. twice daily, day 8): not at day 8
tumour weight at sacrifice, median (and range) ([2]; 9-cis RA 2 x 2.5 mg (RA 2), n 3 tumours, 10 days): 1.84 g and 0.92 to 2.95 g
tumour weight compared to untreated control tumours ([2]; regardless of treatment schedule (2 mg day-1 or 2.5 mg twice daily), after 10-12 days of therapy): no significant reduction in tumour weight
conversion of 9-cis RA to its metabolite (4-oxo-9-cis RA) ([1]; iv): about 8%
ratio AUC (4-oxo-9-cis RA)/AUC (9 cis RA) ([1]; iv): 0.08
conversion of 9-cis RA to its metabolite (4-oxo-9-cis RA) ([1]; po): 42%
ratio AUC (4-oxo-9-cis RA)/AUC (9 cis RA) ([1]; po): 0.42
effect on tumour growth [3]: significant reduction in tumour growth
elimination half-life (t1/2) ([4]; 9 mg 9-cis RA, p.o. and i.v. taken together): 26 to 43 min
AUC (area under the curve) ([4]; intravenous administration, 9 mg 9-cis RA): 80100 ng·h/mL
Cmax ([4]; male, Sprague-Dawley, plasma, iv, 9 mg): 120000 ng/mL
half-life ([4]; male, Sprague-Dawley, plasma, iv, 9 mg, T1/2 (elimination half-life), intravenous administration, 9 mg 9-cis RA): 26.4 min
bioavailability ([4]; male, Sprague-Dawley, plasma, oral, 9 mg): 11%
half-life ([4]; male, Sprague-Dawley, plasma, other: p.o. and i.v. taken together, 9 mg, elimination half-life (t1/2), 9 mg 9-cis RA, p.o. and i.v. taken together): 35 min
Cmax ([4]; male, Sprague-Dawley, plasma, po, 9 mg): 3000 ng/mL
half-life ([4]; male, Sprague-Dawley, plasma, po, 9 mg, T1/2 (elimination half-life), oral administration, 9 mg 9-cis RA): 42.6 min
AUC (area under the curve) ([4]; oral administration, 9 mg 9-cis RA): 8550 ng·h/mL
